The subject of the assay is 5-HT3A-QDA receptor. In words: Outside-out patch clamp of transfected HEK293 cells, effect of ondansetron on 5-HT activated channels. Type of assay: cell-based. Conditions: 1 µM ondansetron with 5-HT, -60 mV, data not shown. On the procedure: HEK293 cells (CRL-1573, ATCC, Manassas, VA) seeded at low density on poly-lysine-coated, 12 mm, thin glass coverslips were transfected 24 h later using a modified calcium-phosphate precipitation technique with 500 ng DNA per well. After 12 h, cells were rinsed with fresh medium (DMEM supplemented with 10% FBS+100 Units ml^-1 penicillin+100 μg ml^-1 streptomycin+4 mM L-glutamine) and incubated at 28°C [34]. Recordings were performed 24-48 h later. For patch clamp experiments the coverslips were mounted on an inverted Zeiss IM microscope equipped with epifluorescent illumination. Cells expressing the GFP reporter were selected for patch clamp recording. Pipettes pulled from borosilicate glass capillaries ([…]-10, Harvard Apparatus Inc., Holliston, MA) with a tip resistance of 8-13 MΩ when filled with intracellular solution. The recordings were done using outside-out and cell-attached patch configurations. Data was acquired with an EPC9 amplifier using Pulse software, v8.65 (HEKA Instruments Inc., Bellmore, NY). Data were sampled at 20 kHz and filtered at 10 kHz. All point histograms and fits with a sum of two or three Gaussian functions were performed using the Levenberg-Marquardt algorithm implemented in Qub software. […] Effects of ondansetron were determined in the outside-out recording configuration at a holding potential of -60 mV.
(The patch-clamp technique gives a direct electrical read-out from membranes.)

Structures are written as SMILES.

Take `Cc1nccn1CC1CCc2c(c3ccccc3n2C)C1=O` (stereo not shown) [ondansetron, Ondansetron]: the “Block of 5-HT activated single channels” value is “no similar channels were observed”.
